Results taken from patent EP2835136A1, “Somatostatin Receptor Modulator for the treatment of infertility” (PregLem S.A., priority 2013, dated 2015).
pKi: −log10 of the molar value. Bridge positions count the residues as written; N and C are the ends. Square brackets hold non-standard residues; d marks the D form. Peptide text beside a SMILES is read from it. Phe(4-Cl) = N[C@@H](Cc1ccc(Cl)cc1)C(=O)O; 2Nal = N[C@@H](Cc1ccc2ccccc2c1)C(=O)O; 4Pal = N[C@@H](Cc1ccncc1)C(=O)O; NMeK = CN[C@@H](CCCCN)C(=O)O

Legend:
hsst5 = hsst5 (Homo sapiens, UniProt P35346); assay: in vitro binding assay, hsst5
hsst4 = hsst4 (Homo sapiens, UniProt P31391); assay: in vitro binding assay, hsst4
hsst2 = hsst2 (Homo sapiens, UniProt P30874); assay: in vitro binding assay, hsst2
hsst3 = hsst3 (Homo sapiens, UniProt P32745); assay: in vitro binding assay, hsst3
hsst1 = hsst1 (Homo sapiens, UniProt P30872); assay: in vitro binding assay, hsst1
hsst1, sequence (P30872 whole entry): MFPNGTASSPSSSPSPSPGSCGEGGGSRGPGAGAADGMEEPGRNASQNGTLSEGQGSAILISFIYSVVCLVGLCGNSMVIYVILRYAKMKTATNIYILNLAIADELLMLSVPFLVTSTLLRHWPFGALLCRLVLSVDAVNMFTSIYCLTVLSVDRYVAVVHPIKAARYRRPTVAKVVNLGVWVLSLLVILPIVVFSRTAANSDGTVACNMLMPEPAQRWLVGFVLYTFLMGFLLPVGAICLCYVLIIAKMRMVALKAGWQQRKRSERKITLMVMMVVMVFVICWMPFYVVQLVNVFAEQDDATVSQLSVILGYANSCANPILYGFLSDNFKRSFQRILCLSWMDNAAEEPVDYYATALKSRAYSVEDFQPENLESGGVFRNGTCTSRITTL

hsst5, sequence (P35346 whole entry): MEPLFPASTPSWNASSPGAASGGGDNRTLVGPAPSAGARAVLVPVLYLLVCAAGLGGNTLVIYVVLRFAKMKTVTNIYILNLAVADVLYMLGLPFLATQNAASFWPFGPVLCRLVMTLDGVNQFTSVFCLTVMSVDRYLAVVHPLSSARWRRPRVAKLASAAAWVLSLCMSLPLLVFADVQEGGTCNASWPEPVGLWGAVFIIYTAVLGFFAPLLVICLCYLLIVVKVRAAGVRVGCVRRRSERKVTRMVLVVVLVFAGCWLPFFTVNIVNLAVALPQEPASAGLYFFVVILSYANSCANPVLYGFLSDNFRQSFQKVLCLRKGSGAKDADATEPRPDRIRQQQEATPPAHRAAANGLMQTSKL
hsst4, sequence (P31391 whole entry): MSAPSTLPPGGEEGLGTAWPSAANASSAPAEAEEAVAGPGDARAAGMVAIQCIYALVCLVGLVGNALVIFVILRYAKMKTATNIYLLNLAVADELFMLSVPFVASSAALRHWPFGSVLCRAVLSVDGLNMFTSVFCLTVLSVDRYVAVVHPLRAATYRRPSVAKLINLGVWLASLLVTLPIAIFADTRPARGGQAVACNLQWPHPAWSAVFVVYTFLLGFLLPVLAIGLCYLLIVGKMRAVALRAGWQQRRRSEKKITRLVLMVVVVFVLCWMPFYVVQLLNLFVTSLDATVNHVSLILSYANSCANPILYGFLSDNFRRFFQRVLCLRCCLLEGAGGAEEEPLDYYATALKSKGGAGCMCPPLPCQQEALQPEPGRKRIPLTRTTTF
hsst3, sequence (P32745 whole entry): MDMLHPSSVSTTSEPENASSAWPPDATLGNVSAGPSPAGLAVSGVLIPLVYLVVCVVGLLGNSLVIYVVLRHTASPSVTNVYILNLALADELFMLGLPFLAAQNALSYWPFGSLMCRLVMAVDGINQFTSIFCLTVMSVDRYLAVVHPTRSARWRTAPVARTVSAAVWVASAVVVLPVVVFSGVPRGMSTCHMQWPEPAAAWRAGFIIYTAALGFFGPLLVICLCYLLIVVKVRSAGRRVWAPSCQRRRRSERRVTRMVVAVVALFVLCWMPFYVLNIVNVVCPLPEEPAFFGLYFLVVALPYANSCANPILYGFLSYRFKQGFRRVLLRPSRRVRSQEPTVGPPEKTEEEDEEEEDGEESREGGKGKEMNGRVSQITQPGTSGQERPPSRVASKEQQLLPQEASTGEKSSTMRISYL
hsst2, sequence (P30874 whole entry): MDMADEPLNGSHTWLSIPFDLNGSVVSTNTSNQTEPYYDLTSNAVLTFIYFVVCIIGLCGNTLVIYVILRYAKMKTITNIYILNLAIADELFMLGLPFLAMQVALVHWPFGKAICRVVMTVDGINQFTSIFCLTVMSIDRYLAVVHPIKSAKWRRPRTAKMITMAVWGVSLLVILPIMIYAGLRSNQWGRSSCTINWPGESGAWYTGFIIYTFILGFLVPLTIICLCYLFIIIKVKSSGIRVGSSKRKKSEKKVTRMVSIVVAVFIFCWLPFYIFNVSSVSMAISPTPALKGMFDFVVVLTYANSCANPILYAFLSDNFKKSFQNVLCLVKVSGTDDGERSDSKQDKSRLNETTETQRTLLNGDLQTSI

pKi (hsst5)	pKi (hsst4)	pKi (hsst2)	pKi (hsst3)	pKi (hsst1)	Compound
8.22	6.00	7.77	7.18	6.00	C[C@@H](O)[C@@H]1NC(=O)[C@H](CCCCN)N(C)C(=O)[C@@H](Cc2c[nH]c3ccccc23)NC(=O)[C@H](Cc2ccncc2)NC(=O)[C@H](NC(=O)[C@@H](N)Cc2ccc(Cl)cc2)CSSC[C@@H](C(=O)N[C@@H](Cc2ccc3ccccc3c2)C(N)=O)NC1=O [Compound "B", Cpa-[D-Cys-4-Pal-D-Trp-N-Me-Lys-Thr-Cys]-2-Nal-NH2] (H-[Phe(4-Cl)][dC][4Pal][dW][NMeK]TC[2Nal]-NH2; disulfide 2-7)
7.07	6.15	8.19	7.36	5.56	C[C@@H](O)[C@@H]1NC(=O)[C@H](CCCCN)NC(=O)[C@@H](Cc2c[nH]c3ccccc23)NC(=O)[C@H](Cc2ccncc2)NC(=O)[C@H](NC(=O)[C@@H](N)Cc2ccc(Cl)cc2)CSSC[C@@H](C(=O)N[C@@H](Cc2ccc3ccccc3c2)C(N)=O)NC1=O [Compound "A", Cpa-[D-Cys-4-Pal-D-Trp-Lys-Thr-Cys]-2-Nal-NH2]
